Results on two molecules are retold here after patent publication US9700547B2, “Use of 6-hydroxy-2-pyridones and derivatives thereof for preparing a pharmaceutical composition that acts by inhibiting the human uridine phosphorylase enzyme” (UNIÃO BRASILEIRA DE EDUCAÇÃO E ASSISTÊNCIA, MANTENEDORA DA …, priority 2013, dated 2017).

Test [1] concerns the target T1, Human Phosphorylase Uridine 1 (hUP1) (Homo sapiens, UniProt Q16831). The test can be described thus: hUP1 enzymatic assay, inhibition at 1 μM (UV absorbance of uridine at 280 nm). The class given is biochemical. Particulars: 1 μM compound, 37° C. As to the method: (§1) The enzymatic activity of the hUP1 is performed through the enzymatic essay using one spectrophotometer UV/visible where the absorbance reduction of uridine in 280 nm, for 1 min and at 37° C. was monitored.
For determining which inhibitors would be selected for determining the inhibition constant (Ki), one cut point of 1 μM was stipulated, where only those compounds that would inhibit more than 60% of the initial activity of the enzyme would be selected for this type of analysis (Table 1). From all compounds tested, 7 molecules had its inhibition above 60% with the concentration of 1 μM (Compounds c1, c2, c3, c4, c6, c12, and c13). All essays described on this patent application were performed for these compounds and for benzil acyclo uridine (BAU), in order to perform a direct comparison of the results achieved with the better in vitro inhibitor of the hUP1 described (standard).

In test [2] the target is T1, Human Phosphorylase Uridine 1 (hUP1). Kind of test: Ki and inhibition type from substrate saturation curves, double-reciprocal analysis. The class given is biochemical. Particulars: for Inhibiting type for phosphate: substrate Pi; for Inhibition type for uridine: substrate uridine. The protocol:
as §1
For determining Ki for the selected inhibitors, we performed saturation curves where the concentration of one of the substrates is fixed next to the Km and the concentration of another, varied until the saturation in fixed-varying concentrations of each one of the inhibitors.
(I) v=VA/[Ka(1+I/Kii)+A(1+Kis)] (II) v=VA/[A(1+I/Kis)+Ka] (III)

Another test addresses hUP1-Pi (Homo sapiens, UniProt Q16831). The test can be described thus: isothermal titration microcalorimetry (ITC), enzyme complexed with substrate Pi. The class given is binding. As to the method: (§2) For determining the thermodynamic parameters (enthalpy variation—ΔH, entropy variation—ΔS, and free energy variation of Gibbs—ΔG) were performed compounds binding essays to the enzyme in different conditions: free enzyme, complexed enzyme with the substrate Pi, and the complexed enzyme with the product ribose-1-phosphate (R1P). For such analyses, it was used isothermal titration microcalorimetry (ITC) where the equipment monitors the difference of transferred heat, between the reference cell and the sample cell, when bindings are formed or broken during the binding process. The data analysis achieved was performed through the model One Set of Sites and the determination of ΔG and the dissociation constant (KD) were through the equations (IV) and (V) below, respectively: ΔG=ΔH−TΔS (IV) KD=1/Ka (V)

Another test concerns the target hUP1-R1P (Homo sapiens, UniProt Q16831). Kind of test: isothermal titration microcalorimetry (ITC), enzyme complexed with product ribose-1-phosphate. The class given is binding. The protocol: as §2
Test [3] concerns intestinal mucositis caused by 5-FU. Kind of test: intestinal mucositis model caused by 5-FU (weight, diarrhea, villus histology). The format is in vivo, female Wistar mouse. Particulars: 5 days. The protocol: The compound c3 was tested in in vivo for evaluating its protection regarding intestinal mucositis caused by 5-FU. The mucositis model was developed in female Wistar mouse (180-200 g) and the animals were divided into 5 groups with 4 animals in each group: Group 1: Saline+Saline Group 2: Compound c3 (150 mg/kg)+saline Group 3: Saline+5-FU (50 mg/kg) Group 4: Compound c3 (50 mg/kg)+5-FU (50 mg/kg) Group 5: Compound c3 (150 mg/kg)+5-FU (50 mg/kg) The test compound was administrated via oral, 30 minutes before administrating the chemotherapeutic 5-FU that was administrated via intraperitoneal. This treatment was followed for 5 days with once a day administrations. In the 5th treatment day, the animals were euthanized using one inhalational anesthetic (isoflurane) and the initial portion of the intestine (corresponding to jejunum and ileus) was collected for myeloperoxidase analysis (MPO) and histological analysis of the tissue, as well blood collect for quantification analysis of the uridine in the plasma. The animals were also followed-up regarding weight loss and diarrhea.

Another test has as its system plasma uridine. Kind of test: uridine concentration in animals' plasma by HPLC (mucositis model). The settings on record: compound orally, either 50 mg/kg or 150 mg/kg. The class given is in vivo, female Wistar mouse. As to the method: The test compound was administrated via oral, 30 minutes before administrating the chemotherapeutic 5-FU that was administrated via intraperitoneal. This treatment was followed for 5 days with once a day administrations. In the 5th treatment day, the animals were euthanized using one inhalational anesthetic (isoflurane) and the initial portion of the intestine (corresponding to jejunum and ileus) was collected for myeloperoxidase analysis (MPO) and histological analysis of the tissue, as well blood collect for quantification analysis of the uridine in the plasma. The animals were also followed-up regarding weight loss and diarrhea.
The determination of the uridine concentration in the animals' plasma as performed by HPLC, using as mobile phase acetic acid 0.1%. First, it was made a calibration curve using commercial uridine as standard (Sigma) in the concentrations of 0.625-1.25-2.5-5.0-10.0-20.0 μM in mice plasma to keep the same matrix where the samples ones are. After the calibration curve, the plasma samples were analyzed of each group and was one positive result was achieved. As was expected, there was an increase of 4.4 times in the uridine concentration in the animals' plasma that received the compound orally, either in the dose of 50 mg/kg or in the dose of 150 mg/kg (FIGS. 5A and 5B). […]

For test [4], the system named is myeloperoxidase (MPO) in initial portion of the intestine. Kind of test: MPO analysis in repeated mucositis model. The class given is in vivo. Particulars: 50 mg/kg orally of 8-8 h, starting 2 days before 5-FU and 2 further days with 5-FU. As to the method:
The last in vivo analysis was regarding the MPO. The MPO is a primary answer of inflammation, present in neutrophils, and for that it was analyzed which is the best day of euthanasia to check this primary answer. The treatment schema lasted 5 days, where the animals were divided into 2 groups with 10 animals in each (Group Saline and Group 5-FU). The 5-FU (50 mg/kg) was administrated using the intraperitoneal via, as well the Saline. The animals were put into euthanasia in 24 h, 48 h, 72 h, 96 h and 120 h after the administration (days 1-5) and the initial portion of the intestine was collected. It was verified that the best day for MPO quantification would be day 2 (48 h after 5-FU administration), such as represented in the FIG. 6, in which the statistical analysis was performed though one-way ANOVA followed by Bonferroni test. The lines represent the standard error while each column represents the mean of two animals of each group. *Significant difference regarding group Saline (*p<0.05).
The first experiment of mucositis was repeated, with 3 groups having 5 animals in each (Group Saline+Saline, Group Saline+5-FU and Group Compound c3+5-FU). […] The animals were euthanized with isoflurane and the initial portion of the intestine was analyzed. […]

Another test deals with hUP1 (Homo sapiens, UniProt Q16831). The test can be described thus: isothermal titration microcalorimetry (ITC), free enzyme. The format is binding. The protocol:
as §2

In test [5] the target is T1, Human Phosphorylase Uridine 1 (hUP1). The settings on record: literature value, said to be confirmed by own experiments; read-out: constant inhibition for uridine described on the literature; cited from earlier work.
Where [6] appears, read: c3 50 or 150 mg/kg oral 30 min before 5-FU 50 mg/kg intraperitoneal, once a day.

Sequence of hUP1-R1P (Q16831 whole entry): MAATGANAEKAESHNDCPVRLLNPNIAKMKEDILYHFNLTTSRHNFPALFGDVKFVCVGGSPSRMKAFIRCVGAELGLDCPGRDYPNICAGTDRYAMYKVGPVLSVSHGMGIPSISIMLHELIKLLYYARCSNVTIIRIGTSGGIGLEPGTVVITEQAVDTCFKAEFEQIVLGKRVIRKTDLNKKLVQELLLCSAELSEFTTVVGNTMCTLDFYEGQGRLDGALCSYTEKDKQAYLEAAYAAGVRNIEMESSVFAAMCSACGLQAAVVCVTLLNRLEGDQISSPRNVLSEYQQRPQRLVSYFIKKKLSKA
T1 sequence (Q16831 whole entry): as above
Sequence of hUP1-Pi (Q16831 whole entry): as above
Sequence of hUP1 (Q16831 whole entry): as above

For the molecule `Cc1cc(O)[nH]c(=O)c1C#N` [Compound c3], in test [1], the “Inhibition with 1 μM (%)” value was determined as 70% and the inhibition at 1 µM is over 60%. In test [2], the “Inhibiting type for phosphate” value is on record as “Uncompetitive” and the “Inhibition type for uridine” value is listed as “Not competitive”. In addition, at hUP1-Pi, the affinity, expressed as Kd, was 12000 ± 1400 nM; the “ΔG°” value was -6.9 ± 0.8 kcal/mol; the “ΔH°” value is -19 ± 1.3 kcal/mol; the “−TΔS (kcal/mol/deg)” value came out at 12 ± 1.4 kcal/mol/deg. At hUP1-R1P (hUP1-R1P 50 μM), the Kd was 1400 ± 341 nM, the “ΔG°” value is -8.3 ± 2.0 kcal/mol, the “ΔH°” value is -31 ± 1.2 kcal/mol and the “−TΔS (kcal/mol/deg)” value worked out at 22 ± 5.4 kcal/mol. At hUP1-R1P (hUP1-R1P 150 μM), binding was put at a Kd of 40 nM, the “ΔG°” value is -9.8 ± 1.4 kcal/mol, the “ΔH°” value was -21 ± 0.1 kcal/mol and the “−TΔS (kcal/mol/deg)” value is 11 ± 1.5 kcal/mol. For the same molecule, at hUP1-R1P (hUP1-R1P 200 μM), the Kd worked out at 20 nM, the “ΔG°” value is -11 ± 1.3 kcal/mol, the “ΔH°” value is -22 ± 0.1 kcal/mol and the “−TΔS (kcal/mol/deg)” value is 11 ± 1.3 kcal/mol. Further, the “intestinal villus size (histological analysis)” value in test [3] (both tested doses (50 and 150 mg/kg oral) + 5-FU 50 mg/kg intraperitoneal) was “statistically equal to the group Saline and different from the group 5-FU”. Moreover, in test [3] (setting [6]), the “protection from diarrhea caused by 5-FU” value is recorded as “not able to avoid these side effects” and the “protection from weight loss caused by 5-FU” value is listed as “not able to avoid these side effects”. For the same molecule, in the test with plasma uridine, the “increase in the uridine concentration in the animals' plasma” value is on record as 4.4 times. For the same molecule, in test [4], the “MPO, primary inflammation process” value is on record as “not able to revert the primary inflammation process”.
`O=c1[nH]c(=O)n(COCCO)cc1Cc1ccccc1` [BAU, benzil acyclo uridine, reference compound]: in [2], the “Inhibiting type for phosphate” value is “Not competitive” and the “Inhibition type for uridine” value is “Competitive”. In addition, on hUP1, the Kd is 1200 ± 150 nM, the “ΔG°” value was -8.4 ± 1.0 kcal/mol, the “ΔH°” value is -10 ± 0.1 kcal/mol and the “−TΔS (kcal/mol/deg)” value came out at 1.5 ± 0.2 kcal/mol/deg. On hUP1-Pi, the Kd was determined as 1400 ± 239 nM, the “ΔG°” value was -8.2 ± 1.4 kcal/mol, the “ΔH°” value is -13 ± 0.3 kcal/mol and the “−TΔS (kcal/mol/deg)” value worked out at 4.6 ± 0.8 kcal/mol/deg. Moreover, at hUP1-R1P (hUP1-R1P 50 μM), binding was characterised by a dissociation constant (Kd) of 1200 ± 244 nM, the “ΔG°” value is -8.2 ± 1.7 kcal/mol and the “ΔH°” value is -12 ± 0.3 kcal/mol. Besides, at hUP1-R1P (hUP1-R1P 150 μM), the Kd is 6600 ± 898 nM, the “ΔG°” value is -7.3 ± 1.0 kcal/mol and the “ΔH°” value is -20 ± 0.7 kcal/mol. Also, in test [5], the Ki was 100 nM.
